Starred links: 1 amine or outer side, 2 acyl side, 3 side chain; linkers in the order of their positions; H or OH if unused. Positions of bridges follow the written chain, without caps; N, C: chain ends. Non-standard residues stand in square brackets, D forms with d. Residues, ends and D or L forms follow the SMILES beside them. *: point of attachment. hPhe(3-Cl-4-CF3) = N[C@@H](CCc1ccc(C(F)(F)F)c(Cl)c1)C(=O)O; Pro(cis-4-Ph) = O=C(O)[C@@H]1C[C@H](c2ccccc2)CN1; X77 = O=C([C@H](Cc1cc(Br)ccc1Cl)N[*:1])[*:2]; NMePhe(4-Me) = CN[C@@H](Cc1ccc(C)cc1)C(=O)O; X53 = O=C([C@H](Cc1cccc(F)c1F)N[*:1])[*:2]; NMedβ3hAla = C[C@H](CC(=O)[*:2])N(C)[*:1]; Phe(4-Cl) = N[C@@H](Cc1ccc(Cl)cc1)C(=O)O; NMeGly(cPent) = CN[C@H](C(=O)O)C1CCCC1; Phe(3-I) = N[C@@H](Cc1cccc(I)c1)C(=O)O; NMeY = CN[C@@H](Cc1ccc(O)cc1)C(=O)O; NMeCha = CN[C@@H](CC1CCCCC1)C(=O)O; NMeGly(cPr) = CN[C@H](C(=O)O)C1CC1; NMeChg = CN[C@H](C(=O)O)C1CCCCC1; NMeI = CC[C@H](C)[C@H](NC)C(=O)O; NMeD = CN[C@@H](CC(=O)O)C(=O)O; NMeL = CN[C@@H](CC(C)C)C(=O)O; NMeAbu = CC[C@H](NC)C(=O)O; Morpholide = C1CN(*)CCO1; NMeA = CN[C@@H](C)C(=O)O; NMeAib = CNC(C)(C)C(=O)O; Nle = CCCC[C@H](N)C(=O)O; Piperidide = C1CCN(*)CC1; dNMeA = CN[C@H](C)C(=O)O; Ac5c = NC1(C(=O)O)CCCC1; Aze = O=C(O)[C@@H]1CCN1; Sar = CNCC(=O)O

One may read the IC50 as the midpoint of a concentration-inhibition curve.

The assay deals with T1, Kras and SOS1 (biotin-tagged human Kras loaded with GDP, His-tagged human SOS1) (Homo sapiens, UniProt P01116, G12D).
T1 construct: made in house; host or cells: E. coli (stated for Kras only)
T1 sequence (P01116 1-188 isoform P01116-2 G12D): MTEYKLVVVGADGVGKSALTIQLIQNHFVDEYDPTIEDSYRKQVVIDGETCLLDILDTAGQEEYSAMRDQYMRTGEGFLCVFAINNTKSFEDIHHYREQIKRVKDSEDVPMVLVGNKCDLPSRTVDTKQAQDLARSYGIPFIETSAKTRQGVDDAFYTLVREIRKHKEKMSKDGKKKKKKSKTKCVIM
Nature of the assay: Protein-protein interaction inhibition between Kras and SOS1 (KrasGl2D-SOS PPI) using AlphaScreen. Format: binding. Conditions: AlphaScreen; biotin-tagged human Kras loaded with GDP, His-tagged human SOS1; read-out: KRAS G12D-SOS PPI IC50. The method, boiled down:
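Energy transfer from nickel-chelate donor beads bound to His-SOS1 to streptavidin acceptor beads bound to biotin-Kras, expressed in E. coli and loaded with GDP after purification, was monitored. Donors were excited at 680 nm; singlet oxygen reaching acceptors gave emission read at 520-620 nm.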
On the technique in general: Alpha assays give light when donor and acceptor beads are brought close together.
Consider `CC[C@H](C)[C@@H]1NC(=O)[C@H](CC(C)C)N(C)C(=O)C[C@@H](C(=O)N(C)C)N(C)C(=O)[C@H]([C@@H](C)CC)N(C)C(=O)[C@H](C(C)C)NC(=O)[C@@H](C)NC(=O)[C@H](CCc2ccc(C(F)(F)F)c(Cl)c2)NC(=O)CN(C)C(=O)[C@H](Cc2ccc(C)cc2)N(C)C(=O)[C@@H]2CCN2C(=O)[C@H](C)N(C)C1=O` [Compound 915] ([NMeL]I[NMeA][Aze][NMePhe(4-Me)][Sar][hPhe(3-Cl-4-CF3)][dA]V[NMeI][NMeD]-NMe2; lactam N-11), for which the IC50 is 40 nM.

Turning to `CCCC[C@@H]1NC(=O)[C@H](Cc2cccc(F)c2F)NC(=O)CN(C)C(=O)[C@H](Cc2ccc(OC)cc2)N(C)C(=O)[C@@H]2CCN2C(=O)[C@H](C)N(C)C(=O)[C@H]([C@@H](C)CC)NC(=O)[C@H](CC)N(C)C(=O)C[C@@H](C(=O)N2CCCCC2)N(C)C(=O)[C@H](CC(C)C)NC(=O)C(C)(C)N(C)C1=O` [Compound 1256] ([NMeAbu]I[NMeA][Aze][NMeY](Me)[Sar][X53][Nle][NMeAib]L[NMeD]-Piperidide; lactam N-11), the half-maximal inhibitory concentration (IC50) came to 9.1 nM.

In the case of `CC[C@H](C)[C@@H]1NC(=O)[C@H](CC(C)C)N(C)C(=O)C[C@@H](C(=O)N(C)C)N(C)C(=O)[C@H](C2CCCC2)N(C)C(=O)C2(CCCC2)NC(=O)[C@@H](C)NC(=O)[C@H](CCc2ccc(C(F)(F)F)c(Cl)c2)NC(=O)CN(C)C(=O)[C@H](CC2CCCCC2)N(C)C(=O)[C@@H]2CCN2C(=O)[C@H](C)N(C)C1=O` [Compound 191] ([NMeL]I[NMeA][Aze][NMeCha][Sar][hPhe(3-Cl-4-CF3)][dA][Ac5c][NMeGly(cPent)][NMeD]-NMe2; lactam N-11), the IC50 came to 3.4 nM.

In the case of `CC[C@H](C)[C@@H]1NC(=O)[C@H](CC(C)C)N(C)C(=O)C[C@@H](C(=O)N2CCCCC2)N(C)C(=O)[C@H](C2CCCCC2)N(C)C(=O)C2(CCCC2)NC(=O)[C@@H]2C[C@H](c3ccccc3)CN2C(=O)[C@H](CCc2ccc(C(F)(F)F)c(Cl)c2)NC(=O)CN(C)C(=O)[C@H](CC2CCCCC2)N(C)C(=O)[C@@H]2CCN2C(=O)[C@H](C)N(C)C1=O` [Compound 1053] ([NMeL]I[NMeA][Aze][NMeCha][Sar][hPhe(3-Cl-4-CF3)][Pro(cis-4-Ph)][Ac5c][NMeChg][NMeD]-Piperidide; lactam N-11), the concentration for half-maximal inhibition (IC50) amounted to 6.7 nM.

Regarding `CC[C@H](C)[C@@H]1NC(=O)[C@H](CC(C)C)N(C)C(=O)C[C@@H](C(=O)N2CCOCC2)N(C)C(=O)[C@H](C2CCCCC2)N(C)C(=O)C2(CCCC2)NC(=O)[C@@H]2CCCN2C(=O)[C@H](CCc2ccc(C(F)(F)F)c(Cl)c2)NC(=O)CN(C)C(=O)[C@H](CC2CCCCC2)N(C)C(=O)CN(C)C(=O)CN(C)C1=O` [Compound 1333] ([NMeL]I[Sar][Sar][NMeCha][Sar][hPhe(3-Cl-4-CF3)]P[Ac5c][NMeChg][NMeD]-Morpholide; lactam N-11), the 50% inhibitory concentration (IC50) was 0.48 nM.

As to `CCCC[C@@H]1NC(=O)[C@H](Cc2cc(Br)ccc2Cl)NC(=O)CN(C)C(=O)[C@H](Cc2ccc(OC)cc2)N(C)C(=O)[C@@H]2CCN2C(=O)[C@H](C)N(C)C(=O)[C@H]([C@@H](C)CC)NC(=O)[C@H](CC)N(C)C(=O)C[C@@H](C(=O)N2CCCCC2)N(C)C(=O)[C@H](CC(C)C)NC(=O)C(C)(C)N(C)C1=O` [Compound 1212] ([NMeAbu]I[NMeA][Aze][NMeY](Me)[Sar][X77][Nle][NMeAib]L[NMeD]-Piperidide; lactam N-11), the IC50 came to 120 nM.

Consider `CC[C@H](C)[C@@H]1NC(=O)[C@H](CC(C)C)N(C)C(=O)C[C@@H](C(=O)N2CCCCC2)N(C)C(=O)[C@H](CC(C)C)NC(=O)C(C)(C)N(C)C(=O)[C@H](Cc2ccc(Cl)cc2)NC(=O)[C@H](Cc2cccc(I)c2)NC(=O)CN(C)C(=O)[C@H](CC2CCCCC2)N(C)C(=O)CN(C)C(=O)CN(C)C1=O` [Compound 330] ([NMeL]I[Sar][Sar][NMeCha][Sar][Phe(3-I)][Phe(4-Cl)][NMeAib]L[NMeD]-Piperidide; lactam N-11), for which the half-maximal inhibitory concentration (IC50) is 80 nM.

Consider `CC[C@H](C)[C@@H]1NC(=O)[C@H](CC(C)C)N(C)C(=O)C[C@@H](C)N(C)C(=O)[C@H](CC(C)C)NC(=O)C(C)(C)N(C)C(=O)[C@H](CC(C)C)NC(=O)[C@H](CCc2ccc(C(F)(F)F)c(Cl)c2)NC(=O)[C@@H](C)N(C)C(=O)[C@H](Cc2ccc(C)cc2)N(C)C(=O)[C@@H]2CCN2C(=O)CN(C)C1=O` [Compound 1394] (cyclo([Aze][NMePhe(4-Me)][dNMeA][hPhe(3-Cl-4-CF3)]L[NMeAib]L[NMedβ3hAla][NMeL]I[Sar])), for which the IC50 amounted to 130 nM.

For `CC[C@H](C)[C@@H]1NC(=O)[C@H](CC(C)C)N(C)C(=O)C[C@@H](C(=O)N2CCCCC2)N(C)C(=O)[C@H](C2CCCCC2)N(C)C(=O)C2(CCCC2)NC(=O)[C@@H]2CCCN2C(=O)[C@H](CCc2ccc(C(F)(F)F)c(Cl)c2)NC(=O)CN(C)C(=O)[C@H](C2CC2)N(C)C(=O)CN(C)C(=O)CN(C)C1=O` [Compound 1666] ([NMeL]I[Sar][Sar][NMeGly(cPr)][Sar][hPhe(3-Cl-4-CF3)]P[Ac5c][NMeChg][NMeD]-Piperidide; lactam N-11), the IC50 was determined as 1.1 nM.

For the origin of these results see patent US12371454B2, “Cyclic peptide compound having Kras inhibitory action” (priority 2019, dated 2025).
